Experimental data: patent US20250313808A1, “LIQUID CRYSTAL SCAFFOLDS AND USE THEREOF FOR ORGANOID, SPHEROID, AND 3D CELLAGGREGATE MANUFACTURING” (THE REGENTS OF THE UNIVERSITY OF CALIFORNIA, priority 2022, published 2025)

Assay: Cell growth on CLC versus other substrates (FIG. 13)
Assay type: cell-based
Settings: CLC compared to PDMS, agarose or cholesteryl oleyl carbonate substrates
Description: Varying ratio of mesogen were weighted to generate a scaffold with desirable phase transition. The mesogens were heated to the melt phase of about 80° C. and then pipetted onto surfaces to create CLC-coated substrates. The substrates were then placed in well plates cell culture media and cells were added to the substrates using traditional cell seeding techniques. The scaffold directed cellular organization once the scaffold was placed in the cell culture incubator with seeded cells on the surface.

Question: Which “cell growth on substrate” value does the source give for `CCCCCCCC/C=C\CCCCCCCCOC(=O)O[C@H]1CC[C@@]2(C)C(=CC[C@H]3[C@@H]4CC[C@H]([C@H](C)CCCC(C)C)[C@@]4(C)CC[C@@H]32)C1` [cholesteryl oleyl carbonate] here?
Answer: cell growth was only observed on CLC substrate
